# ChEMBL document CHEMBL1201862, “PubChem BioAssay data set” (2004)
# The source made the active and inactive calls. Cut-off read from the data, not from the text of the source, for most assays here: actives have a measured EC50 and inactives only a lower limit.
# What was measured:
# [1] = inhibitors of firefly luciferase expression or activity, dose response, H4 neuroglioma cells, luminescence (AID 1990); type: functional, cell-based
# [2] = inhibitors of intracellular T. cruzi replication, confirmation, NIH3T3 host cells, beta-gal luminescence (AID 2044); type: functional, cell-based;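 note: intracellular parasites grown in NIH/3T3 mouse fibroblasts as host cells; luminescent beta-galactosidase reporter signal from transgenic T. cruzi replicating inside host cells; inhibitors lower the luminescence signal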
# [3] = cytotoxicity toward NIH3T3 fibroblasts, dose response, counter-screen, cell-based, ATP luminescence, mouse fibroblasts (AID 2010); type: functional;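 note: cells exposed to compound for about 90 hours before reading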
# [4] = Luminescence Cell-Based Dose Response HTS to Identify Inhibitors of 5'UTR Stem-Loop Driven Prion Protein mRNA Translation in H4 Neuroglioblastoma Cells. [Related pubchem assays: 1827 (Project Summary), 1813 (Primary HTS)]; type: functional
# [5] = inhibitors of SNCA 5'UTR-driven reporter translation, confirmation, H4 neuroglioma cells, luminescence (AID 1988); type: functional, cell-based
# [6] = C. albicans growth with fluconazole, confirmation, fluorescence, retest (AID 2467); type: functional, cell-based
# [7] = NIH-3T3 fibroblast cytotoxicity, dose response, cytotoxicity control, cell-based, fluorescence, Alamar Blue, secondary assay (AID 2327); type: functional;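 note: NIH-3T3 mouse fibroblasts cultured with fluconazole at 8 µg/mL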
# [8] = biological target: T1, Heat shock factor protein 1 (Mus musculus, UniProt P38532); assay: HSF1 potentiators in luciferase reporter cells, confirmation, cell-based, NIH3T3, luminescence, dose retest (AID 435004); type: functional;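 note: stress induced by proteasome inhibitor MG132 added 30 min after compound; luciferase reporter driven by HSF1 response element in NIH3T3 cells; actives raise luminescence as potentiators of the MG132 stress response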
# T1 sequence (P38532 whole entry): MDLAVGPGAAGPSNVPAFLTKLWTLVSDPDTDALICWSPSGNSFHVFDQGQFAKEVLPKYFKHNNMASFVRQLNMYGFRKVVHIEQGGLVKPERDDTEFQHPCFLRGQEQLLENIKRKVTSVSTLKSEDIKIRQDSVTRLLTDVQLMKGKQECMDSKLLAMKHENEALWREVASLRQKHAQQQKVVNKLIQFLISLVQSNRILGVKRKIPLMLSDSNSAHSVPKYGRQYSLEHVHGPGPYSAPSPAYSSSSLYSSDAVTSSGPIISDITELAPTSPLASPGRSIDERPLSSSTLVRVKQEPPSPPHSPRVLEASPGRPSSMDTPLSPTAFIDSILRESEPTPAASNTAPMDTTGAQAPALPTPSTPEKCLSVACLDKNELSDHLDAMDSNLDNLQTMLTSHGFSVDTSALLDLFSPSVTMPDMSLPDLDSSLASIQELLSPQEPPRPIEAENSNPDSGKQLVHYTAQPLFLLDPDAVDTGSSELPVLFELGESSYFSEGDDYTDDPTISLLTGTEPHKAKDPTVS
# Cytochrome P450 2D6 = Cytochrome P450 2D6 (Homo sapiens, UniProt P10635);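 note: CYP2D6 member of a cytochrome P450 panel assay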
# [9] = Luminescence Cell-Based Dose Retest to Confirm Inhibitors of Cancer Stem Cells. [Related pubchem assays (depositor defined):AID2717, AID2721]; type: functional; settings: Homo sapiens
# Cytochrome P450 3A4 = Cytochrome P450 3A4 (Homo sapiens, UniProt P08684);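 note: CYP3A4 tested as one member of a cytochrome P450 panel screen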
# [10] = biological target: T2, Corticotropin-releasing factor receptor 2/Corticotropin-releasing factor-binding protein (Homo sapiens, UniProt P24387+Q13324); assay: Dose Response confirmation of uHTS hits for small molecule antagonists of the CRF-binding protein and CRF-R2 receptor complex.; type: functional; settings: read-out: IC50_Mean
# T2 sequence (Q13324 whole entry): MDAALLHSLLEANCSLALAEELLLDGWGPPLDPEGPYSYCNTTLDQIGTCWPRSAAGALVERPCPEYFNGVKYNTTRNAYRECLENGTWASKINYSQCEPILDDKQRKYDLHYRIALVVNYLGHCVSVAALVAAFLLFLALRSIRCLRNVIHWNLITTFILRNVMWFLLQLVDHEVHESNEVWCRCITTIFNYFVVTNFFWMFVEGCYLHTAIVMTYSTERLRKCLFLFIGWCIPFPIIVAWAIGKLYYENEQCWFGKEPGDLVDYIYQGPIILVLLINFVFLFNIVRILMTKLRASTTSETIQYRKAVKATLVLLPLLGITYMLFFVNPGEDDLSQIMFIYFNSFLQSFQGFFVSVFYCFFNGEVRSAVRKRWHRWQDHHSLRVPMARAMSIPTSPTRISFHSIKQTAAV
# T2 sequence (P24387 whole entry): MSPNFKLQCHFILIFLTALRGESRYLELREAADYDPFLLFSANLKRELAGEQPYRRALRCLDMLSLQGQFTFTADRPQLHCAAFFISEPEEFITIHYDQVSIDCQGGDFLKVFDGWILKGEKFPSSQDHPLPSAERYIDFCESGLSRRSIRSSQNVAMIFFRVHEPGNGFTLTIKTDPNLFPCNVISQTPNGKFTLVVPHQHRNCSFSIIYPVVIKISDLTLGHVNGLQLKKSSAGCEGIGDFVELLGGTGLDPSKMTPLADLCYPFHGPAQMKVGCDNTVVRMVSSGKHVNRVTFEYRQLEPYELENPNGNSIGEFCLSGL
# [11] = biological target: T2, Corticotropin-releasing factor receptor 2/Corticotropin-releasing factor-binding protein; assay: activators of CRF receptor 2 with binding protein – uHTS hits, confirmation (AID 602473); type: functional; settings: read-out: EC50_Mean
# [12] = growth suppression of PTEN-null colon cells, dose response, cell-based, HCT116 PTEN knockout (AID 1047); type: functional;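 note: HCT116 colon tumor cells with PTEN knocked out; cells exposed to compound for 60 hours before readout; potency for loss of cell viability measured by luminescence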
# Streptokinase A = biological target: T3, Streptokinase A (Streptococcus pyogenes serotype M1, UniProt P10520); assay: S. pyogenes streptokinase expression inhibitors, potency, dose response, plasminogen activation absorbance, OD405 (AID 1914); type: functional, Streptococcus pyogenes M1 GAS;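 note: secreted streptokinase activity via plasminogen activation per viability signal from cell pellet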
# T3 sequence (P10520 whole entry): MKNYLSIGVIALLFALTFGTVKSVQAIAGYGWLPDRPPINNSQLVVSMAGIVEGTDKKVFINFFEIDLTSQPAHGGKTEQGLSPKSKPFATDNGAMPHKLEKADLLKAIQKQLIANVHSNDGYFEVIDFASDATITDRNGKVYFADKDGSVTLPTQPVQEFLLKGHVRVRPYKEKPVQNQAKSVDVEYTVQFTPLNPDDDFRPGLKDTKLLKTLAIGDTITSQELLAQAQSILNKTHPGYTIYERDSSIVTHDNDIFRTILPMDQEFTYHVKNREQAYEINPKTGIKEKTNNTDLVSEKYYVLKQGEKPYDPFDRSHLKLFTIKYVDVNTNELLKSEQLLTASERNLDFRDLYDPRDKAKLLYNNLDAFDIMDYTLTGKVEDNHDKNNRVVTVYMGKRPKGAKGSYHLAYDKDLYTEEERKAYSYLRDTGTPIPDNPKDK
# Streptococcus = assay: Group A Streptococcus viability loss, dose response, counter-screen for streptokinase expression inhibitor project, luminescence, BacTiterGlo (AID 1915); type: functional, organism-based;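 note: potency for reduction of bacterial viability or growth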
# [13] = test system: Streptococcus sp. 'group A'; assay: growth inhibition of control SK(-) GAS strain, dose response, counter-screen for streptokinase expression inhibitor project, luminescence, kanamycin, BacTiterGlo, confirmation (AID 1900); type: functional, organism-based
# [14] = Shn3 3'UTR reporter inhibitors, dose response, cell-based, Clone20 osteoblasts, firefly luciferase, cherry-picked (AID 624132); type: functional;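 note: firefly luciferase luminescence from reporter carrying the Shn3 3'UTR in osteoblasts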
# P388/ADR = assay: cells; type: functional; settings: Mus musculus
# SN12K1 = assay: cells; type: functional; settings: Homo sapiens
# Chain of Cytochrome P450 2D6 (P10635 whole entry): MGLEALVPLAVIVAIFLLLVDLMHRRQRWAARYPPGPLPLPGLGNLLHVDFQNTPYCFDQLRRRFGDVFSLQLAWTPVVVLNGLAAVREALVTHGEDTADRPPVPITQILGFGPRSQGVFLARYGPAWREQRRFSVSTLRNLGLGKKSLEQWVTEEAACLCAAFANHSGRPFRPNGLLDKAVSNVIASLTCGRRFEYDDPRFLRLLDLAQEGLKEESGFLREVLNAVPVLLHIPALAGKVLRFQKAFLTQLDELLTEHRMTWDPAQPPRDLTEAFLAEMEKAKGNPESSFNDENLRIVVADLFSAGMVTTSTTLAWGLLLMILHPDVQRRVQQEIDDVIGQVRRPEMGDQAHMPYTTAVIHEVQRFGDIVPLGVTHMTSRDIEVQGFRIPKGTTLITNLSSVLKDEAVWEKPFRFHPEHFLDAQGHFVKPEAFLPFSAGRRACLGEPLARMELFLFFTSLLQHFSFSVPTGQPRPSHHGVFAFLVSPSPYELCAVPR
# Chain of Cytochrome P450 3A4 (P08684 whole entry): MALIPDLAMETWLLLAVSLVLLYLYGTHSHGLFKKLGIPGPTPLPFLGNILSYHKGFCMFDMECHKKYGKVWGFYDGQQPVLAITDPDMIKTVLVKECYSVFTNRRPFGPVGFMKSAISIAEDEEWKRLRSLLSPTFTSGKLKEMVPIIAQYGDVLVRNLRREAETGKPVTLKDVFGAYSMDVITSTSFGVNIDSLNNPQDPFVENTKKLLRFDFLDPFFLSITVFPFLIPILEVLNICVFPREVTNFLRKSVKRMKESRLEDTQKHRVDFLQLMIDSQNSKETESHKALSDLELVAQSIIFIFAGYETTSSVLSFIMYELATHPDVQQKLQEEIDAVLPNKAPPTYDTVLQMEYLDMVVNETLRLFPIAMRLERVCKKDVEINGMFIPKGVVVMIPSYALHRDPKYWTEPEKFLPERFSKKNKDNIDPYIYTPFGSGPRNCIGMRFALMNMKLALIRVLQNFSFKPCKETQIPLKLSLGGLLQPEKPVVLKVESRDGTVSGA
smiles,measurement,setting,value
Cc1ccc(-n2nc3c(N4CCC(C(=O)NCCc5ccccc5C)CC4)nnc(C)c3c2C)cc1,EC50,[1],9.7 µM (active)
same,EC50,[2],0.941 µM (active)
same,EC50,[3],6.26 µM (active)
same,EC50,[4],39.8 µM (active)
same,EC50,[5],> 120 µM (not active)
O=C1CC(c2cccc(Cl)c2)c2cc3c(cc2N1)CCC3 (stereo not given),EC50,[1],> 120 µM (not active)
same,EC50,[4],11.9 µM (active)
same,EC50,[5],6.74 µM (active)
Cc1nc2sc(C(c3cccc(F)c3)N3CCCC(C)C3)c(O)n2n1 (stereo not given),EC50,[6],1.82 µM (active)
same,EC50,[7],> 150 µM (inactive)
CC(=O)NCCC(=O)Nc1nc(-c2cccs2)c(-c2cccs2)s1,EC50,[8],> 260 µM (inactive)
Oc1cccc(-c2nc3c4c(ncn3n2)-c2ccccc2CC42CCCC2)c1,AC50,Cytochrome P450 2D6,0.631 µM (inconclusive)
same,AC50,[9],1.16 µM (active)
same,AC50,Cytochrome P450 3A4,22.4 µM (inconclusive)
Cn1nnc2c[n+](CC(=O)c3ccc4ccccc4c3)cc(Br)c21,EC50,[8],12.2 µM (active)
O=C(NCc1ccc(F)cc1)c1ccc(CS(=O)(=O)Cc2ccccc2F)o1,EC50,[6],6.51 µM (active)
same,EC50,[7],> 150 µM (inactive)
COc1cc(NC(=S)N2CCN(S(=O)(=O)c3ccccc3)CC2)cc(OC)c1,EC50,[6],> 38 µM (not active)
same,EC50,[7],> 160 µM (inconclusive)
CCOC(=O)C1CCCN(C(=O)c2ccc(Cl)c(S(=O)(=O)N3CCCCC3)c2)C1 (stereo not given),EC50,[8],> 260 µM (inactive)
same,IC50,[10],> 47.1 µM (inactive)
same,EC50,[11],> 53 µM (inactive)
O=[N+]([O-])CC(c1ccccc1)c1c(O)n[nH]c1-c1ccccc1O (stereo not given),EC50,[8],131 µM (active)
O=C(COC(=O)c1c2c(nc3ccccc13)CCCC2)Nc1ccc2c(c1)OCO2,EC50,[12],44.5 µM (active)
O=C1c2c(Br)c(Br)c(Br)c(Br)c2C(=O)N1c1ccccn1,AC50,[9],1.95 µM (active)
O=C(Nc1cccc(-c2csc(Nc3cccc(C(F)(F)F)c3)n2)c1)c1ccccc1,EC50,Streptokinase A,> 150 µM (not active)
same,AC50,[9],1.6 µM (active)
same,EC50,Streptococcus,6.3 µM (active)
same,EC50,[13],4.47 µM (active)
Cc1cc(-c2csc3ncnc(S)c23)cc(C)c1C,AC50,[9],12.8 µM (active)
same,EC50,Streptococcus,4.06 µM (active)
same,EC50,[13],1.31 µM (active)
O=C1NC2(CCC3(CC2)OCCO3)NN1c1ccccc1,EC50,[6],> 38 µM (not active)
same,EC50,[7],> 160 µM (inconclusive)
CCC(Oc1ccccc1)C(=O)Nc1ncc([N+](=O)[O-])s1 (stereo not given),EC50,[6],1.5 µM (active)
same,EC50,[7],> 160 µM (inactive)
COc1nc(N2CCCCCC2)nc(N2CCCCCC2)n1,AC50,[9],6.21 µM (active)
COC(=O)N1C(=O)[C@@](c2ccccc2)(C2CCCC2)N1C(=O)OC,EC50,[8],14.9 µM (active)
CC(C)(C)c1ccc(Oc2ccc(NC(=O)c3cccs3)cn2)cc1,AC50,[9],3.9 µM (active)
Cc1ccc(NC(=O)c2cc3c(=O)oc4ccccc4c3s2)nc1,EC50,[8],> 260 µM (inactive)
CCN(CC(=O)Nc1ccc(NC(C)=O)cc1)Cc1c(O)ccc2cc(Br)ccc12,EC50,[8],8.46 µM (active)
CCS(=O)(=O)c1ccc2oc(SCC(=O)N3CCCCC3)nc2c1,AC50,[14],> 70 µM (inactive)
CN(C)c1nc(NC(C)(C)C)nc(SCC(=O)Nc2ccccc2)n1,EC50,[8],> 260 µM (inactive)
COc1ccccc1-c1c(C(F)(F)F)oc2cc(OCC(=O)Nc3cc(C)ccc3C)ccc2c1=O,EC50,[1],> 120 µM (not active)
same,EC50,[4],> 120 µM (not active)
same,EC50,[5],> 120 µM (not active)
CCOc1ccc(C2C3=C(O)CCCC3=Nc3ccc4ncccc4c32)cc1 (stereo not given),EC50,[8],14.1 µM (active)
CCCCN=C(S)N(Cc1ccco1)Cc1cc2cc3c(cc2nc1O)OCCO3,EC50,[8],> 260 µM (inactive)
Cc1cc(OCc2cc(C(=O)N3CCC(Oc4cccnc4)CC3)no2)cc(C)c1Cl,AC50,[9],7.55 µM (active)
Cc1ccc(-c2nnn(CC(=O)N(Cc3ccco3)C(C(=O)NC(C)(C)C)c3ccncc3)n2)o1 (stereo not given),EC50,[6],> 38 µM (not active)
same,EC50,[7],> 150 µM (inactive)
Cc1ccc(-n2c(SCC(=O)Nc3cc(S(=O)(=O)N4CCOCC4)ccc3Cl)nc3ccccc3c2=O)cc1,EC50,[8],> 260 µM (inactive)
COc1cc(/C=C(\C#N)C(N)=O)cc(Br)c1O,GI50,P388/ADR,> 100 µM (inactive)
same,GI50,SN12K1,95.3 µM (inactive)
CCCOc1cccc(C(=O)N/N=C/c2coc3ccccc3c2=O)c1,EC50,[6],> 38 µM (not active)
same,EC50,[7],28.2 µM (active)
CC1CCN(Cc2c(C(=O)N/N=C/c3ccc(C(C)(C)C)cc3)nnn2-c2nonc2N)CC1,EC50,[1],9.56 µM (active)
same,EC50,[4],14.1 µM (active)
same,EC50,[5],> 120 µM (not active)
Cc1onc(-c2ccccc2)c1C(=O)N/N=C/c1cccc(O)c1,EC50,[8],> 260 µM (inactive)
COC(=O)/C(=C\Nc1ccccc1N)c1ncc(C(F)(F)F)cc1Cl,EC50,[8],> 260 µM (inactive)
CCOC(=O)C1=C(C)N=c2s/c(=C\C(=O)OC)c(=O)n2C1c1ccc(OC)cc1 (stereo not given),EC50,[8],10.1 µM (active)
COc1ccc(/C=N/NC(=O)C2C3CCCCC32)cc1OC (stereo not given),EC50,[1],> 120 µM (not active)
same,EC50,[4],> 120 µM (not active)
same,EC50,[5],67.5 µM (active)
